The record followed here is BindingDB's records for doi:10.1016/j.bmcl.2009.09.081 (Lexicon Pharmaceuticals, 2009).

What is called EC50 is the midpoint of the concentration-response curve. Read a low EC50 as an effect from little substance.

The nature of the assay: Inhibition of deoxycytidine kinase-mediated arabinoside C-induced cytotoxicity.
Molecule `NC(=O)c1ccc(-c2cccc(S(=O)(=O)N[C@H]3CC[C@H](n4cc(F)c(N)nc4=O)C3)c2)cc1` [3'-(N-((1S,3S)-3-(4-amino-5-fluoro-2-oxopyrimidin-1(2H)-yl)cyclopentyl)sulfamoyl)biphenyl-4-carboxamide] gave a concentration giving a half-maximal response (EC50) of 5900 nM.

Molecule `Nc1nc(=O)n([C@H]2CC[C@H](NS(=O)(=O)c3cccc(-c4ccc(Cl)cc4Cl)c3)C2)cc1F` [N-((1S,3S)-3-(4-amino-5-fluoro-2-oxopyrimidin-1(2H)-yl)cyclopentyl)-2',4'-dichlorobiphenyl-3-sulfonamide] registered an EC50 of 530 nM.

Consider `Nc1nc(=O)n([C@H]2CC[C@H](NS(=O)(=O)c3cccc(-c4ccccc4Cl)c3)C2)cc1F` [N-((1S,3S)-3-(4-amino-5-fluoro-2-oxopyrimidin-1(2H)-yl)cyclopentyl)-2'-chlorobiphenyl-3-sulfonamide], for which the response was half-maximal at 430 nM (EC50). This EC50 and that of the molecule before are within 1.5-fold of each other.

The molecule `Nc1nc(=O)n([C@H]2CC[C@H](NC(=O)c3cccc(-c4cccc(Cl)c4)c3)C2)cc1F` [N-((1S,3S)-3-(4-amino-5-fluoro-2-oxopyrimidin-1(2H)-yl)cyclopentyl)-3'-chlorobiphenyl-3-carboxamide] came in with a 50% effective concentration (EC50) of 180 nM.

`Nc1nc(=O)n([C@H]2CC[C@H](NS(=O)(=O)c3cccc(-c4cccc(Cl)c4)c3)C2)cc1F` [N-((1S,3S)-3-(4-amino-5-fluoro-2-oxopyrimidin-1(2H)-yl)cyclopentyl)-3'-chlorobiphenyl-3-sulfonamide] showed a half-maximal effective concentration (EC50) of 360 nM.

In turn, `Nc1nc(=O)n([C@H]2CC[C@H](NS(=O)(=O)c3cccc(Br)c3)C2)cc1F` [N-((1S,3S)-3-(4-amino-5-fluoro-2-oxopyrimidin-1(2H)-yl)cyclopentyl)-3-bromobenzenesulfonamide] came in with a concentration for a half-maximal effect (EC50) of 2800 nM. This EC50 lies about 7.8-fold higher than the previous one.

Consider `CS(=O)(=O)c1ccc(-c2cccc(S(=O)(=O)N[C@H]3CC[C@H](n4cc(F)c(N)nc4=O)C3)c2)cc1` [N-((1S,3S)-3-(4-amino-5-fluoro-2-oxopyrimidin-1(2H)-yl)cyclopentyl)-4'-(methylsulfonyl)biphenyl-3-sulfonamide], for which the concentration for a half-maximal effect (EC50) came out at 1800 nM.

Turning to `Cc1cc(Cl)ccc1-c1cccc(C(=O)N[C@H]2CC[C@H](n3cc(F)c(N)nc3=O)C2)c1` [N-((1S,3S)-3-(4-amino-5-fluoro-2-oxopyrimidin-1(2H)-yl)cyclopentyl)-4'-chloro-2'-methylbiphenyl-3-carboxamide], the concentration for a half-maximal effect (EC50) is 170 nM.

In turn, `Cc1cc(Cl)ccc1-c1cccc(S(=O)(=O)N[C@H]2CC[C@H](n3cc(F)c(N)nc3=O)C2)c1` [N-((1S,3S)-3-(4-amino-5-fluoro-2-oxopyrimidin-1(2H)-yl)cyclopentyl)-4'-chloro-2'-methylbiphenyl-3-sulfonamide] had a 50% effective concentration (EC50) of 290 nM.

With `Nc1nc(=O)n([C@H]2CC[C@H](NC(=O)c3cccc(-c4ccc(Cl)cc4)c3)C2)cc1F` [N-((1S,3S)-3-(4-amino-5-fluoro-2-oxopyrimidin-1(2H)-yl)cyclopentyl)-4'-chlorobiphenyl-3-carboxamide], the EC50 is 270 nM.

In the case of `Nc1nc(=O)n([C@H]2CC[C@H](NS(=O)(=O)c3cccc(-c4ccc(Cl)cc4)c3)C2)cc1F` [N-((1S,3S)-3-(4-amino-5-fluoro-2-oxopyrimidin-1(2H)-yl)cyclopentyl)-4'-chlorobiphenyl-3-sulfonamide], the concentration for a half-maximal effect (EC50) turned out to be 240 nM.

Turning to `N#Cc1ccc(-c2cccc(S(=O)(=O)N[C@H]3CC[C@H](n4cc(F)c(N)nc4=O)C3)c2)cc1` [N-((1S,3S)-3-(4-amino-5-fluoro-2-oxopyrimidin-1(2H)-yl)cyclopentyl)-4'-cyanobiphenyl-3-sulfonamide], the response was half-maximal at 390 nM (EC50).

In turn, `COc1ccc(-c2cccc(C(=O)N[C@H]3CC[C@H](n4cc(F)c(N)nc4=O)C3)c2)cc1` [N-((1S,3S)-3-(4-amino-5-fluoro-2-oxopyrimidin-1(2H)-yl)cyclopentyl)-4'-methoxybiphenyl-3-carboxamide] returned a half-maximal effective concentration (EC50) of 100 nM.

Turning to `COc1ccc(-c2cccc(S(=O)(=O)N[C@H]3CC[C@H](n4cc(F)c(N)nc4=O)C3)c2)cc1` [N-((1S,3S)-3-(4-amino-5-fluoro-2-oxopyrimidin-1(2H)-yl)cyclopentyl)-4'-methoxybiphenyl-3-sulfonamide], the EC50 amounted to 300 nM. This EC50 is about 3-fold higher than that of the molecule before.

Turning to `Cc1ccc(-c2cccc(S(=O)(=O)N[C@H]3CC[C@H](n4cc(F)c(N)nc4=O)C3)c2)cc1` [N-((1S,3S)-3-(4-amino-5-fluoro-2-oxopyrimidin-1(2H)-yl)cyclopentyl)-4'-methylbiphenyl-3-sulfonamide], the midpoint of the response, the EC50, lay at 500 nM. This EC50 is about 1.7-fold higher than that of the molecule before.

As to `Nc1nc(=O)n([C@H]2CC[C@H](NS(=O)(=O)c3ccc(Br)cc3)C2)cc1F` [N-((1S,3S)-3-(4-amino-5-fluoro-2-oxopyrimidin-1(2H)-yl)cyclopentyl)-4-bromobenzenesulfonamide], the EC50 stood at 11000 nM.

`Nc1nc(=O)n([C@H]2CC[C@H](NS(=O)(=O)c3ccc([N+](=O)[O-])cc3)C2)cc1F` [N-((1S,3S)-3-(4-amino-5-fluoro-2-oxopyrimidin-1(2H)-yl)cyclopentyl)-4-nitrobenzenesulfonamide] gave a 50% effective concentration (EC50) of 16000 nM.

For `Nc1nc(=O)n([C@H]2CC[C@H](NS(=O)(=O)c3ccccc3)C2)cc1F` [N-((1S,3S)-3-(4-amino-5-fluoro-2-oxopyrimidin-1(2H)-yl)cyclopentyl)benzenesulfonamide], the EC50 came to 17000 nM.

As for `Nc1nc(=O)n([C@H]2CC[C@H](NC(=O)c3cccc(-c4ccccc4)c3)C2)cc1F` [N-((1S,3S)-3-(4-amino-5-fluoro-2-oxopyrimidin-1(2H)-yl)cyclopentyl)biphenyl-3-carboxamide], the 50% effective concentration (EC50) was 910 nM.

Consider `Nc1nc(=O)n([C@H]2CC[C@H](NS(=O)(=O)c3cccc(-c4ccccc4)c3)C2)cc1F` [N-((1S,3S)-3-(4-amino-5-fluoro-2-oxopyrimidin-1(2H)-yl)cyclopentyl)biphenyl-3-sulfonamide], for which a half-maximal effect (EC50) was put at 600 nM.

In turn, `Nc1nc(=O)n([C@H]2CC[C@H](NS(=O)(=O)c3ccc(-c4ccccc4)cc3)C2)cc1F` [N-((1S,3S)-3-(4-amino-5-fluoro-2-oxopyrimidin-1(2H)-yl)cyclopentyl)biphenyl-4-sulfonamide] displayed a 50% effective concentration (EC50) of 5500 nM.
